A short description of this data set: Transdermal delivery and tolerability of Rivastigmine patches. The format is in vivo.

For `CCN(C)C(=O)Oc1cccc([C@H](C)N(C)C)c1` [Rivastigmine, (S)-{3-[α-(Dimethylamino)ethyl]phenyl}-N-ethyl-N-methylcarbamate], the tolerability result (dose of 36 mg free base in up to 80 cm^2 of patches) is “well tolerated”. Besides, the amount absorbed (patches containing 36 mg Rivastigmine, up to 80 cm^2) is recorded as 12 mg.

The record behind these values is patent US20140336253A1, “COMPOSITION FOR TRANSDERMAL ADMINISTRATION OF RIVASTIGMINE” (priority 2011, published 2014).
